Test results published in patent US8329644B2, “Lantibiotic-based compounds having antimicrobial activity” (Novacta Biosystems Limited, priority 2007, dated 2012).
Where “and” joins values, the source holds several entries; their conditions need not be identical. Equal entries are not always repeated.

Key:
[1] = system: E. coli; assay: MIC against intestinal flora organisms, E. coli; type: cell-based
Description: (§1) Susceptibility testing for all aerobic organisms with the exception of Streptococcus pneumoniae was performed by two-fold serial antibiotic dilutions in Mueller-Hinton Broth supplemented with 50 μg/ml Ca^2+ unless otherwise noted. Susceptibility testing for S. pneumoniae was performed by two-fold serial antibiotic dilutions in Brain-Heart-Infusion Broth supplemented with 50 μg/ml Ca^2+ unless otherwise noted. Actively growing broth cultures were diluted to contain […] by adjusting to an OD600 of 0.2-0.3. They were then diluted a further 1:100 in fresh sterile broth. The assays were performed in duplicate in sterile 96-well microtitre plates in a total volume of 200 μl (160 μl broth, 20 μl antimicrobial agent, 20 μl inoculum) in a concentration range from 64 μg/ml to 0.06 μg/ml. […] Clinical isolates of Clostridium difficile were tested in Wilkins-Chalgren Anaerobe Agar under anaerobic conditions. In all cases, vancomycin was used as a reference antibiotic

[2] = system: S. constellatus; assay: MIC susceptibility testing, S. constellatus; type: cell-based; conditions: S. constellatus GRL05065; Viridans streptococci; Table 3
Description: as §1

[3] = system: S. oralis; assay: MIC susceptibility testing, S. oralis; type: cell-based; conditions: S. oralis 7862912.1; Viridans streptococci; Table 3
Description: as §1

[4] = system: S. aureus; assay: MIC susceptibility testing, S. aureus; type: cell-based, Staphyloccus aureus
Description: as §1

[5] = system: Bifidobacterium adolescentis; assay: MIC against intestinal flora organisms, Bifidobacterium adolescentis; type: cell-based; conditions: Bifidobacterium adolescentis NCTC 11814; Table 5
[6] = system: E. faecium; assay: MIC susceptibility testing, E. faecium; type: cell-based
Description: as §1

[7] = system: S. acidominimus; assay: MIC susceptibility testing, S. acidominimus; type: cell-based; conditions: S. acidominimus 7862865; Viridans streptococci; Table 3
Description: as §1

[8] = system: S. mitis; assay: MIC susceptibility testing, S. mitis; type: cell-based; conditions: Viridans streptococci, Table 3
Description: as §1

[9] = Stability in simulated intestinal fluid (SIF); type: in vitro ADME; conditions: 37° C., analytical HPLC
Description: Nisin, mersacidin, compound I and compound III were tested for their susceptibility towards enzymatic digestion in the stomach. Nisin, mersacidin and compound III were tested for their susceptibility towards enzymatic digestion in the intestine. The SGF and SIF were based on the standard USP solutions for simulated gastric and simulated intestinal fluids and their activity confirmed against Bovine Serum Albumin (Hilger et al, Clin. Exp. Immunol. 2001, 123, 387-94). The compounds were incubated in SGF or SIF at 37° C. and their concentrations quantified by analytical HPLC (UV detection at 210 nm). The potential degradation of each compound was also monitored qualitatively by measuring in vitro antibacterial activity against Micrococcus luteus.
The rapid degradation of nisin in this medium supports the observation that the clinical utility of nisin for the treatment of colonic infections is very limited unless the compound can be protected from degradative enzymes by means of careful formulation.

[10] = system: E. faecalis; assay: MIC susceptibility testing, E. faecalis; type: cell-based
Description: as §1

[11] = system: S. epidermidis; assay: MIC susceptibility testing, S. epidermidis; type: cell-based, Staphylococcus epidermidis
Description: as §1

[12] = system: Bifidobacterium longum; assay: MIC against intestinal flora organisms, Bifidobacterium longum; type: cell-based; conditions: Bifidobacterium longum NCTC 11818; Table 5

CCC(C)[C@@H]1NC(=O)[C@H](C(C)C)NC(=O)[C@H]2NC(=O)CNC(=O)[C@@H]3CS[C@@H](C)[C@@H](NC(=O)[C@H]4CSC[C@H](N)C(=O)N[C@@H](CO)C(=O)NCC(=O)N[C@@H](Cc5c[nH]c6ccccc56)C(=O)N[C@@H](C(C)C)C(=O)N4)C(=O)N[C@@H](CC(C)C)C(=O)N[C@@H](C(=O)N[C@@H](C(C)CC)C(=O)N[C@@H](CCC(=O)O)C(=O)N3)[C@H](C)SC[C@H](NC1=O)C(=O)N[C@@H](C)C(=O)N[C@H](C(=O)NCCO)C[S+]([O-])[C@H]2C (stereo partly shown) [Compound III, Actagardine N-[2-ethanolamine]monocarboxamide]
>64 µg/mL: Minimal Inhibitory Concentration (MIC) ([1]; E. coli ATCC 25922, Table 5) | Minimal Inhibitory Concentration (MIC) ([1]; E. coli DC2 (membrane more susceptible), Table 5, first line) | Minimal Inhibitory Concentration (MIC) ([1]; E. coli DC2 (membrane more susceptible), Table 5, second line)
essentially stable: stability in SIF [9]
4 µg/mL: Minimal Inhibitory Concentration (MIC) ([6]; E. faecium (VRE) (clinical isolate), Table 5, second isolate) | Minimal Inhibitory Concentration (MIC) ([6]; E. faecium (VSE) ATCC 29212, Table 5) | MIC ([6]; E. faecium GRL05031, Vancomycin resistant enterococci, Table 3) | MIC ([6]; E. faecium GRL05032, Vancomycin resistant enterococci, Table 3) | MIC [7] | MIC ([8]; S. mitis 1 7722543) | MIC ([8]; S. mitis 1 7863547) | MIC ([10]; E. faecalis 29212, Table 2) | MIC ([10]; E. faecalis GRL05029, Vancomycin sensitive enterococci, Table 3) | MIC ([10]; E. faecalis GRL05030, Vancomycin sensitive enterococci, Table 3)
8 µg/mL: MIC [3] | MIC ([4]; S. aureus 12232, Methicillin resistant, Table 3) | MIC ([4]; S. aureus R34, Methicillin resistant, Table 3) | MIC ([4]; S. aureus SH1000, Table 2) | MIC ([8]; S. mitis GRL05062) | MIC ([10]; E. faecalis 7754422, Vancomycin sensitive enterococci, Table 3) | MIC ([10]; E. faecalis GRL05023, Vancomycin sensitive enterococci, Table 3) | MIC ([10]; E. faecalis GRL05024, Vancomycin sensitive enterococci, Table 3) | MIC ([10]; E. faecalis GRL05026, Vancomycin sensitive enterococci, Table 3) | MIC ([10]; E. faecalis GRL05027, Vancomycin sensitive enterococci, Table 3)
64 µg/mL: MIC ([6]; E. faecium 7131121, Table 2) | Minimal Inhibitory Concentration (MIC) ([6]; E. faecium (VRE) (clinical isolate), Table 5, first isolate)
32 µg/mL: MIC ([4]; S. aureus 2, Vancomycin intermediate, Table 3) | MIC ([4]; S. aureus 26, Vancomycin intermediate, Table 3) | MIC ([4]; S. aureus G20, Methicillin sensitive, Table 3) | MIC ([4]; S. aureus G22, Methicillin sensitive, Table 3) | MIC ([4]; S. aureus G23, Methicillin sensitive, Table 3) | MIC ([4]; S. aureus G30, Methicillin sensitive, Table 3) | MIC ([4]; S. aureus G32, Methicillin sensitive, Table 3) | MIC ([4]; S. aureus G33, Methicillin sensitive, Table 3) | MIC ([4]; S. aureus MI, Vancomycin intermediate, Table 3) | MIC ([4]; S. aureus Mu3, Vancomycin intermediate, Table 3) | MIC ([4]; S. aureus Mu50, Vancomycin intermediate, Table 3) | MIC ([4]; S. aureus R40, Methicillin resistant, Table 3) | MIC ([4]; S. aureus W71, Methicillin resistant, Table 3) | MIC ([4]; S. aureus W74, Methicillin resistant, Table 3) | MIC ([4]; S. aureus W98, Methicillin resistant, Table 3) | MIC ([4]; S. aureus W99, Methicillin resistant, Table 3) | Minimal Inhibitory Concentration (MIC) [5] | MIC ([11]; S. epidermidis GRL05003, Methicillin sensitive, Table 3) | MIC ([11]; S. epidermidis GRL05004, Methicillin sensitive, Table 3) | MIC ([11]; S. epidermidis GRL05020, Methicillin resistant, Table 3) | MIC ([11]; S. epidermis 11047, Table 2) | Minimal Inhibitory Concentration (MIC) [12]
16 µg/mL: MIC ([4]; S. aureus G28, Methicillin sensitive, Table 3) | MIC ([4]; S. aureus R33, Table 2) | MIC ([4]; S. aureus R36, Methicillin resistant, Table 3) | MIC ([4]; S. aureus SH1000, Methicillin sensitive, Table 3) | MIC ([4]; S. aureus V99, Vancomycin intermediate, Table 3) | MIC ([6]; E. faecium 19579, Table 2) | MIC ([6]; E. faecium 19579, Vancomycin sensitive enterococci, Table 3) | Minimal Inhibitory Concentration (MIC) ([6]; E. faecium (VSE) ATCC 19579, Table 5) | MIC ([6]; E. faecium GRL05034, Vancomycin resistant enterococci, Table 3) | MIC ([6]; E. faecium GRL05035, Vancomycin resistant enterococci, Table 3) | MIC ([8]; S. mitis GRL05067)
>32 µg/mL: MIC [2] | MIC ([4]; S. aureus G15, Methicillin sensitive, Table 3) | MIC ([4]; S. aureus G31, Methicillin sensitive, Table 3) | MIC ([4]; S. aureus G35, Methicillin sensitive, Table 3) | MIC ([4]; S. aureus NJ, Vancomycin intermediate, Table 3) | MIC ([4]; S. aureus R39, Methicillin resistant, Table 3) | MIC ([4]; S. aureus W96, Methicillin resistant, Table 3) | MIC ([4]; S. aureus W97, Methicillin resistant, Table 3) | MIC ([6]; E. faecium 7634337, Vancomycin resistant enterococci, Table 3) | MIC ([6]; E. faecium 7662769, Vancomycin resistant enterococci, Table 3) | MIC ([6]; E. faecium 7865229, Vancomycin sensitive enterococci, Table 3) | MIC ([6]; E. faecium 7865532, Vancomycin resistant enterococci, Table 3) | MIC ([6]; E. faecium 9709024, Vancomycin resistant enterococci, Table 3) | MIC ([6]; E. faecium 9710577, Vancomycin resistant enterococci, Table 3) | MIC ([11]; S. epidermidis 7753921, Methicillin resistant, Table 3) | MIC ([11]; S. epidermidis 7755298, Methicillin resistant, Table 3) | MIC ([11]; S. epidermidis 7865688, Methicillin resistant, Table 3) | MIC ([11]; S. epidermidis GRL05001, Methicillin sensitive, Table 3) | MIC ([11]; S. epidermidis GRL05002, Methicillin sensitive, Table 3) | MIC ([11]; S. epidermidis GRL05005, Methicillin sensitive, Table 3) | MIC ([11]; S. epidermidis GRL05006, Methicillin sensitive, Table 3) | MIC ([11]; S. epidermidis GRL05007, Methicillin sensitive, Table 3) | MIC ([11]; S. epidermidis GRL05008, Methicillin sensitive, Table 3) | MIC ([11]; S. epidermidis GRL05009, Methicillin sensitive, Table 3) | MIC ([11]; S. epidermidis GRL05010, Methicillin sensitive, Table 3) | MIC ([11]; S. epidermidis GRL05011, Methicillin resistant, Table 3) | MIC ([11]; S. epidermidis GRL05013, Methicillin resistant, Table 3) | MIC ([11]; S. epidermidis GRL05014, Methicillin resistant, Table 3) | MIC ([11]; S. epidermidis GRL05015, Methicillin resistant, Table 3) | MIC ([11]; S. epidermidis GRL05017, Methicillin resistant, Table 3) | MIC ([11]; S. epidermidis GRL05019, Methicillin resistant, Table 3)
8 µg/mL and 4 µg/mL: MIC ([6]; E. faecium GRL05033, Vancomycin resistant enterococci, Table 3)
